Measured values taken from ChEMBL document CHEMBL4033683, “Dual functional small molecule fluorescent probes for image-guided estrogen receptor-specific targeting coupled potent antiproliferative potency for breast cancer therapy” (Bioorg Med Chem, 2017).
pEC50, pIC50: −log10 of the molar value. Active and inactive are the calls of the source. The calls are words filed in the database; no cut-off is given here.

Key:
Homo sapiens [1] = species on record: Homo sapiens; experiment: Binding affinity to ER in human MCF7 cells assessed as increase in fluorescence in cytosol at 10 uM after 2 hrs by confocal laser scanning microscopic method; assay type: cell-based
[2] = biological target: T1, Estrogen receptor (Homo sapiens) (UniProt P03372); experiment: Binding affinity to ERalpha (unknown origin) at 1 uM in presence of estradiol by fluorescence assay
T1 sequence (whole entry): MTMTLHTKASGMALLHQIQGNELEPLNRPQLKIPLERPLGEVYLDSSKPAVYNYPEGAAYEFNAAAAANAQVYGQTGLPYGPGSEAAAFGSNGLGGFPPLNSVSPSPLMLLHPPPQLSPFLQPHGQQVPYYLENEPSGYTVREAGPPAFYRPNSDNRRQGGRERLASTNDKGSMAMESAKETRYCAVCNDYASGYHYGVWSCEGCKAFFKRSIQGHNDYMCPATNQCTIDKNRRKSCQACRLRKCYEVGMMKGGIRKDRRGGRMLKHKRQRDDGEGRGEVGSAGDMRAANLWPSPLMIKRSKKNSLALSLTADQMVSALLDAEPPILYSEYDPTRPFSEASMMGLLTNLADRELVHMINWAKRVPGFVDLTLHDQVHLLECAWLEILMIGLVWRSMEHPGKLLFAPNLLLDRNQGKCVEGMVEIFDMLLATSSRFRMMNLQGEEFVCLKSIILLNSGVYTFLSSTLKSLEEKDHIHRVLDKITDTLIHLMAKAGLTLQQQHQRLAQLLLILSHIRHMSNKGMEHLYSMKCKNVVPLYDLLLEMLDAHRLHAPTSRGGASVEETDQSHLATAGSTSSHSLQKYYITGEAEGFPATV

MCF7 = experiment: cells; settings: Homo sapiens, MCF7, 72 h
Estrogen receptor beta [3] = biological target: T2, Estrogen receptor beta (Homo sapiens, UniProt Q92731); experiment: Binding affinity to ERbeta (unknown origin) at 1 uM in presence of estradiol by fluorescence assay
[4] = biological target: T1, Estrogen receptor (Homo sapiens); experiment: Binding affinity to ERalpha (unknown origin) at 1 uM by fluorescence assay
Homo sapiens [5] = species on record: Homo sapiens; experiment: Binding affinity to ER in human MCF7 cells assessed as increase in fluorescence in nucleus at 10 uM after 2 hrs by confocal laser scanning microscopic method; assay type: cell-based
[6] = Drug uptake in human MDA-MB-231 cells at 10 uM after 2 hrs by confocal laser scanning microscopic method; assay type: ADME, cell-based; settings: mda-mb-231, 2 h
Homo sapiens [7] = species on record: Homo sapiens; experiment: Binding affinity to ER in human MCF7 cells at 10 uM preincubated for 2 hrs followed by estradiol addition measured after 10 mins by confocal laser scanning microscopic method; assay type: cell-based
Estrogen receptor beta [8] = biological target: T2, Estrogen receptor beta; experiment: Binding affinity to ERbeta (unknown origin) at 1 uM by fluorescence assay
MDA-MB-453 = experiment: Antiproliferative activity against human MDA-MB-453 cells after 72 hrs by MTT assay; assay type: functional, cell-based; settings: MDA-MB-453, 72 h
MDA-MB-231 = experiment: Antiproliferative activity against human MDA-MB-231 cells after 72 hrs by MTT assay; assay type: functional, cell-based; settings: MDA-MB-231, 72 h
Estrogen receptor beta [9] = biological target: T2, Estrogen receptor beta; experiment: Agonist activity at ERbeta (unknown origin) expressed in HEK293T cells after 24 hrs by luciferase reporter gene assay; assay type: cell-based
[10] = biological target: T1, Estrogen receptor (Homo sapiens); experiment: Agonist activity at ERalpha (unknown origin) expressed in HEK293T cells after 24 hrs by luciferase reporter gene assay; assay type: cell-based
Estrogen receptor beta [11] = biological target: T2, Estrogen receptor beta; experiment: Agonist activity at ERbeta (unknown origin) expressed in HEK293T cells after 24 hrs by luciferase reporter gene assay relative to estradiol; assay type: cell-based
[12] = biological target: T1, Estrogen receptor (Homo sapiens); experiment: Antagonist activity at ERalpha (unknown origin) expressed in HEK293T cells assessed as inhibition of estradiol-induced response after 24 hrs by luciferase reporter gene assay relative to estradiol; assay type: cell-based
[13] = Drug uptake in cytosol of human MCF7 cells at 1 uM up to 4 mins by real time fluorescence imaging analysis; assay type: ADME
Estrogen receptor = biological target: T3, Estrogen receptor (Homo sapiens, UniProt P03372); experiment: Antagonist activity at ERalpha (unknown origin) expressed in HEK293T cells assessed as inhibition of estradiol-induced response after 24 hrs by luciferase reporter gene assay; assay type: cell-based
T3 sequence (P03372 whole entry): T1 sequence (whole entry)

Homo sapiens [14] = species on record: Homo sapiens; experiment: Binding affinity to ER in human MCF7 cells assessed as increase in fluorescence in cytosol at 1 uM up to 4 mins by real time imaging analysis; assay type: cell-based
[15] = Drug uptake in nucleus of human MCF7 cells at 1 uM up to 4 mins by real time fluorescence imaging analysis; assay type: ADME
Homo sapiens [16] = species on record: Homo sapiens; experiment: Binding affinity to ER in human MCF7 cells at 1 uM up to 4 mins by real time imaging analysis; assay type: cell-based
Homo sapiens [17] = species on record: Homo sapiens; experiment: Binding affinity to ER in human MCF7 cells assessed as increase in fluorescence in nucleus at 1 uM up to 4 mins by real time imaging analysis; assay type: cell-based

T2 sequence (Q92731 whole entry): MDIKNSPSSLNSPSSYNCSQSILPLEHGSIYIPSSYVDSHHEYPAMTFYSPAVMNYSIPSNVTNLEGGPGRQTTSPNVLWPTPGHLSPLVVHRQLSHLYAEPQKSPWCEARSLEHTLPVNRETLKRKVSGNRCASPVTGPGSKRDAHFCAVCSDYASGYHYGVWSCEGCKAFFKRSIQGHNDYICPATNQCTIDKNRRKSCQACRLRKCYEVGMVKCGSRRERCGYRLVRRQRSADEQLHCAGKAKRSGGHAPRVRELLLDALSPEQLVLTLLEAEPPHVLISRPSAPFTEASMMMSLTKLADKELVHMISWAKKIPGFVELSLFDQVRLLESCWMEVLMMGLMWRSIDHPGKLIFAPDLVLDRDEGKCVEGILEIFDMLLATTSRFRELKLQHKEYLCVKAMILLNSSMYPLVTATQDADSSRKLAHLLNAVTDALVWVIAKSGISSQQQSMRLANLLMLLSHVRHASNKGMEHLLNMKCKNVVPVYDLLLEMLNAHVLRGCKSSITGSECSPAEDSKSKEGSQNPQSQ

SMILES	pIC50 (MCF7)	pIC50 (MDA-MB-453)	pIC50 (MDA-MB-231)	pEC50 (Estrogen receptor beta [9])	Activity [10]	Efficacy (Estrogen receptor beta [11]) [%]	Efficacy [12] [%]	pIC50 (Estrogen receptor)	other results
O=c1oc2cc(O)ccc2cc1-c1ccc(O)c(F)c1	< 4.00	< 4.00	< 4.00	6.68	inactive	66.7	124	–	–
CCC(=C(c1ccc(O)cc1)c1ccc(OCCN(C)C)cc1)c1ccccc1	–	4.98	4.70	–	–	–	–	–	–
Cc1cc(O)ccc1-c1c(C)c2ccc(O)cc2oc1=O	< 4.00	4.26	< 4.00	7.96	inactive	72.1	65.3	6.95	–
C[C@]12CC[C@@H]3c4ccc(O)cc4CC[C@H]3[C@@H]1CC[C@@]2(O)C#Cc1ccc(CNC(=O)c2ccc(-c3c4ccc(=O)cc-4oc4cc(O)ccc34)c(C(=O)O)c2)cc1	–	–	–	–	–	–	–	–	Drug uptake [6]: Active; Activity (Homo sapiens [16]): inactive
CCc1c(-c2ccc(O)c(F)c2)c(=O)oc2cc(O)ccc12	4.30	4.40	4.31	–	inactive	–	–	–	–
O=c1oc2cc(O)ccc2cc1-c1ccc(O)cc1	< 4.00	< 4.00	< 4.00	6.27	inactive	138	101	–	–
O=c1oc2cc(O)ccc2c(-c2ccc(O)c(F)c2)c1-c1ccc(O)c(F)c1	4.40	4.50	< 4.00	–	inactive	-11.2	57.8	6.66	–

Continued, in another order:

pIC50 (MCF7)	pIC50 (MDA-MB-453)	pIC50 (MDA-MB-231)	pEC50 (Estrogen receptor beta [9])	Activity [10]	Efficacy (Estrogen receptor beta [11]) [%]	Efficacy [12] [%]	pIC50 (Estrogen receptor)	SMILES	other results
4.31	4.43	< 4.00	6.46	inactive	68.2	120	–	CCc1c(-c2ccc(O)cc2Cl)c(=O)oc2cc(O)ccc12	Activity (Homo sapiens [1]): Active; Activity [2]: inactive; Activity (Estrogen receptor beta [3]): inactive; Activity [4]: Active; Activity (Homo sapiens [5]): Active; Drug uptake [6]: Not Active; Activity (Homo sapiens [7]): inactive; Activity (Estrogen receptor beta [8]): Active
4.79	5.10	< 4.00	–	inactive	-6.9	26.4	7.92	CCc1c(-c2ccc(O)cc2F)c(=O)oc2cc(O)ccc12	Activity (Homo sapiens [1]): Active; Drug uptake [13]: Not Active; Activity [2]: inactive; Activity (Estrogen receptor beta [3]): inactive; Activity [4]: Active; Activity (Homo sapiens [5]): Active; Activity (Homo sapiens [14]): Active; Drug uptake [6]: Not Active; Activity (Homo sapiens [7]): inactive; Drug uptake [15]: Not Active; Activity (Estrogen receptor beta [8]): Active; Activity (Homo sapiens [16]): Active; Activity (Homo sapiens [17]): Active
4.67	4.57	4.34	6.05	inactive	12.9	84.6	5.91	Cc1c(-c2ccc(O)cc2Cl)c(=O)oc2cc(O)ccc12	–
4.31	4.54	4.22	7.92	–	33.4	15.2	6.65	O=c1oc2cc(O)ccc2c(-c2ccc(O)cc2)c1-c1ccc(O)cc1	–
